The NIST ThermoML archive (doi:10.1021/acs.jced.9b00074)

Test: xn = mol fraction of the nth substance listed
Conditions: 100 kPa, Liquid; for mass density: Vibrating tube method; for viscosity: Falling or rolling sphere viscometry

CC12CC3CC(C1)CC(C)(C3)C2 [1,3-dimethyladamantane] + OC1CCCC1
Conditions	mass density, 313.15 K [kg/m3]	mass density, 318.15 K [kg/m3]	mass density, 323.15 K [kg/m3]	mass density, 328.15 K [kg/m3]	mass density, 333.15 K [kg/m3]	viscosity, 318.15 K [mPa·s]	viscosity, 323.15 K [mPa·s]	viscosity, 328.15 K [mPa·s]	viscosity, 333.15 K [mPa·s]
x2 = 0.0963	889.12	885.4	881.66	877.91	874.14	2.222	2.018	1.841	1.686
x2 = 0.1973	891.91	888.1	884.27	880.42	876.55	2.307	2.083	1.893	1.724
x2 = 0.3101	895.47	891.59	887.67	883.74	879.77	2.447	2.199	1.984	1.797
x2 = 0.4019	898.8	894.85	890.88	886.87	882.83	2.595	2.32	2.082	1.877
x2 = 0.4995	902.71	898.7	894.66	890.58	886.46	2.801	2.485	2.217	1.987
x2 = 0.5999	907.24	903.16	899.04	894.89	890.7	3.048	2.681	2.376	2.116
x2 = 0.6997	912.35	908.21	904.03	899.81	895.55	3.368	2.935	2.576	2.275
x2 = 0.7976	917.88	913.7	909.47	905.2	900.88	3.742	3.234	2.814	2.469
x2 = 0.9003	924.29	920.09	915.84	911.54	907.18	4.179	3.582	3.093	2.689
